SMILES strings stand for the structures.

This passage reports Ki results from patent publication US9273033B2, “Substituted pyridone derivatives as PDE10 inhibitors” (Merck Sharp & Dohme Corp., priority 2012, dated 2016).

The target in this experiment is human PDE10A2 (Homo sapiens (Human), UniProt Q9Y233). Description: PDE10 fluorescence polarization (IMAP FP) inhibition assay. It counts as biochemical. Particulars: human PDE10A2, FAM-labeled cAMP substrate, read-out: PDE10A Ki. The procedure:
The activity of the compounds in accordance with the present invention as PDE10 inhibitors may be readily determined without undue experimentation using a fluorescence polarization (FP) methodology that is well known in the art (Huang, W., et al., J. Biomol Screen, 2002, 7: 215).
In a typical experiment the PDE10 inhibitory activity of the compounds of the present invention was determined in accordance with the following experimental method. PDE10A2 was amplified from human fetal brain cDNA (Clontech, Mountain View, Calif.) using a forward primer corresponding to nucleotides 56-77 of human PDE10A2 (Accession No. AF127480, Genbank Identifier 4894716), containing a Kozak consensus sequence, and a reverse primer corresponding to nucleotides 2406-2413 of human PDE10A2 (Accession No. AF127480, Genbank Identifier 4894716). Amplification with Easy-A polymerase (Stratagene, La Jolla, Calif.) was 95° C. for 2 minutes followed by thirty three cycles of 95° C. for 40 seconds, 55° C. for 30 seconds, and 72° C. for 2 minutes 48 seconds. Final extension was 72° C. for 7 minutes. The PCR product was TA cloned into pcDNA3.2-TOPO (Invitrogen, Carlsbad, Calif.) according to standard protocol. AD293 cells with 70-80% confluency were transiently transfected with human PDE10A2/pcDNA3.2-TOPO using Lipofectamine 2000 according to manufacturer specifications (Invitrogen, Carlsbad, Calif.). Cells were harvested 48 hours post-transfection and lysed by sonication (setting 3, 10×5 sec pulses) in a buffer containing 20 mM HEPES, 1 mM EDTA and protease inhibitor cocktail (Roche). Lysate was collected by centrifugation at 75,000×g for 20 minutes. Supernatant containing the cytoplasmic fraction was used for evaluation of PDE10A2 activity. The fluorescence polarization assay for cyclic nucleotide phosphodiesterases was performed using an IMAP® FP kit supplied by Molecular Devices, Sunnyvale, Calif. (product # R8139). IMAPU technology has been applied previously to phosphodiesterase assays (Huang, W., et al., J. Biomol Screen, 2002, 7: 215). Assays were performed at room temperature in 384-well microtiter plates with an incubation volume of 20.2 μL. Solutions of test compounds were prepared in DMSO and serially diluted with DMSO to yield 8 μL of each of 10 solutions differing by 3-fold in concentration, at 32 serial dilutions per plate. 100% inhibition is determined using a known PDE10 inhibitor, which can be any compound that is present at 5,000 times its Ki value in the assay described as follows, such as papaverine (see Siuciak, et al. Neuropharmacology (2006) 51:386-396; Becker, et al. Behav Brain Res (2008) 186(2):155-60; Threlfell, et al., J Pharmacol Exp Ther (2009) 328(3):785-795), 2-{4-[pyridin-4-yl-1-(2,2,2-trifluoroethyl)-1H-pyrazol-3-yl]phenoxymethyl}quinoline succinic acid or 2-[4-(1-methyl-4-pyridin-4-yl-1H-pyrazol-3-yl)-phenoxymethyl]quinoline succinic acid (see Schmidt, et al. J Pharmacol Exp Ther (2008) 325:681-690; Threlfell, et al., J Pharmacol Exp Ther (2009) 328(3): 785-795). 0% of inhibition is determined by using DMSO (1% final concentrations).
A Labcyte Echo 555 (Labcyte, Sunnyvale, Calif.) is used to dispense 200 nL from each well of the titration plate to the 384 well assay plate. A solution of enzyme (1/1600 dilution from aliquots; sufficient to produce 20% substrate conversion) and a separate solution of FAM-labeled cAMP PDE from Molecular Devices (product # R7506), at a final concentration of 50 nM are made in the assay buffer (10 mM Tris HCl, pH 7.2, 10 mM MgCl2, 0.05% NaN3 0.01% Tween-20, and 1 mM DTT). The enzyme and the substrate are then added to the assay plates in two consecutive additions of 10 μL, and then shaken to mix. The reaction is allowed to proceed at room temperature for 30 minutes. A binding solution is then made from the kit components, comprised of 80% Solution A, 20% Solution B and binding reagent at a volume of 1/600 the total binding solution.
On the technique in general: Fluorescence polarisation rises when a labelled molecule tumbles more slowly, as on binding a larger partner.

Sequence of human PDE10A2 (Q9Y233 267-1055): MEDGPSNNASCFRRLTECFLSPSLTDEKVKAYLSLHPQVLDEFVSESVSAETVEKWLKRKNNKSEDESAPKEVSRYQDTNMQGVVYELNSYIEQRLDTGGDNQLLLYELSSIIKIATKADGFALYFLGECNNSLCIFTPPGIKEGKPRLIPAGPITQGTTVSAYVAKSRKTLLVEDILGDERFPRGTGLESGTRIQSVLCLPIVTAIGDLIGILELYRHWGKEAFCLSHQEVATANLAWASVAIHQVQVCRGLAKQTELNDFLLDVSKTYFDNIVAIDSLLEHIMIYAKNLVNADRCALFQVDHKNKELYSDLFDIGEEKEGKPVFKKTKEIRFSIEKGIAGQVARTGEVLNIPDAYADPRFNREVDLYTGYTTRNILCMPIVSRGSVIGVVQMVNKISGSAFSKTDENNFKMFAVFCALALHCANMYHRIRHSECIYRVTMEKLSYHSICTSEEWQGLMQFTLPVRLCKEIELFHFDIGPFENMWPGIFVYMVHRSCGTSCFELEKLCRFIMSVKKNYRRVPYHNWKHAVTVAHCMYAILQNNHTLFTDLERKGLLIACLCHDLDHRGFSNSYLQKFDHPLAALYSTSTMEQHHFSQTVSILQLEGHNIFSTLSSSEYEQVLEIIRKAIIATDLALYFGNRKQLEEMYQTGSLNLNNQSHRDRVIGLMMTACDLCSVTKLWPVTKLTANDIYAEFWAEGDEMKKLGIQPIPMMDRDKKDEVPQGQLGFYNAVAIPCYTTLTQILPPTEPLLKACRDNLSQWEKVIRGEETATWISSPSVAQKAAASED

One may read the Ki as the dissociation constant of the complex between target and ligand, obtained from inhibition or displacement. Consider `COc1ccc([C@H]2C[C@@H]2COc2nc(C)ncc2-c2ccc(=O)n(C(C)C)c2)nc1` [Example 21, 1-isopropyl-5-(4-(((1S,2S)-2-(5-methoxypyridin-2-yl)cyclopropyl)methoxy)-2-methylpyrimidin-5-yl)pyridin-2(1H)-one], for which the Ki was determined as 0.827 nM.

Consider `COc1ccc([C@H]2C[C@@H]2COc2nc(C)ncc2-c2ccc(=O)n(OC)c2)nc1` [Example 22, 1-methoxy-5-(4-(((1S,2S)-2-(5-methoxypyridin-2-yl)cyclopropyl)methoxy)-2-methylpyrimidin-5-yl)pyridin-2(1H)-one], for which the Ki was 1.9 nM.

As to `Cc1ccc([C@H]2C[C@@H]2COc2nc(C)ncc2-c2ccc(=O)n(C3CC3)c2)nc1` [Example 23, 1-cyclopropyl-5-(2-methyl-4-(((1S,2S)-2-(5-methylpyridin-2-yl)cyclopropyl)methoxy)pyrimidin-5-yl)pyridin-2(1H)-one], the Ki turned out to be 0.519 nM. Take `CCn1cc(-c2cnc(C)nc2OC[C@H]2C[C@@H]2c2ccc(OC)cn2)ccc1=O` [Example 24, 1-ethyl-5-(4-(((1S,2S)-2-(5-methoxypyridin-2-yl)cyclopropyl)methoxy)-2-methylpyrimidin-5-yl)pyridin-2(1H)-one]: the Ki is 1.07 nM. On to `Cc1ccc([C@H]2C[C@@H]2COc2nc(C)ncc2-c2cc(F)c(=O)n(C)c2)nc1` [Example 25, 3-fluoro-1-methyl-5-(2-methyl-4-(((1S,2S)-2-(5-methylpyridin-2-yl)cyclopropyl)methoxy)pyrimidin-5-yl)pyridin-2(1H)-one], for which the Ki is 1.55 nM. As for `COc1ccc([C@H]2C[C@@H]2COc2nc(C)ncc2-c2ccc(=O)n(C)c2C)nc1` [Example 27, 5-(4-(((1S,2S)-2-(5-methoxypyridin-2-yl)cyclopropyl)methoxy)-2-methylpyrimidin-5-yl)-1,6-dimethylpyridin-2(1H)-one], the figure is 0.113 nM. Regarding `Cc1ccc([C@H]2C[C@@H]2COc2nc(C)ncc2-c2ccc(=O)n(C)c2)nc1` [Example 28, 1-methyl-5-(2-methyl-4-(((1S,2S)-2-(5-methylpyridin-2-yl)cyclopropyl)methoxy)pyrimidin-5-yl)pyridin-2(1H)-one], the Ki was 2.04 nM. Turning to `Cc1ncc(-c2ccc(=O)n(C)c2)c(OC[C@H]2C[C@@H]2c2ccc3ccccc3n2)n1` [Example 29, 1-methyl-5-(2-methyl-4-(((1S,2S)-2-(quinolin-2-yl)cyclopropyl)methoxy)pyrimidin-5-yl)pyridin-2(1H)-one], the Ki amounted to 0.052 nM. On to `COCCn1c(C)c(-c2cnc(C)nc2OC[C@H]2C[C@@H]2c2ccc(OC)cn2)ccc1=O` [Example 30, 1-(2-methoxyethyl)-5-(4-(((1S,2S)-2-(5-methoxypyridin-2-yl)cyclopropyl)methoxy)-2-methylpyrimidin-5-yl)-6-methylpyridin-2(1H)-one], for which the Ki stood at 1.46 nM. Turning to `COCCn1c(C)c(-c2cnc(C)nc2OC[C@H]2C[C@@H]2c2ccc3ccccc3n2)ccc1=O` [Example 31, 1-(2-methoxyethyl)-6-methyl-5-(2-methyl-4-(((1S,2S)-2-(quinolin-2-yl)cyclopropyl)methoxy)pyrimidin-5-yl)pyridin-2(1H)-one], the Ki was determined as 0.045 nM. For the compound `CCn1cc(-c2cnc(C)nc2OC[C@H]2C[C@@H]2c2ccc3ccccc3n2)ccc1=O` [Example 32, 1-ethyl-5-(2-methyl-4-(((1S,2S)-2-(quinolin-2-yl)cyclopropyl)methoxy)pyrimidin-5-yl)pyridin-2(1H)-one], the Ki turned out to be 0.024 nM. Turning to `CCn1c(C)c(-c2cnc(C)nc2OC[C@H]2C[C@@H]2c2ccc(OC)cn2)ccc1=O` [Example 33, 1-ethyl-5-(4-(((1S,2S)-2-(5-methoxypyridin-2-yl)cyclopropyl)methoxy)-2-methylpyrimidin-5-yl)-6-methylpyridin-2(1H)-one], the Ki amounted to 1.78 nM. On to `Cc1ncc(-c2ccc(=O)n(C)c2C)c(OC[C@H]2C[C@@H]2c2ccc3ccccc3n2)n1` [Example 34, 1,6-dimethyl-5-(2-methyl-4-(((1S,2S)-2-(quinolin-2-yl)cyclopropyl)methoxy)pyrimidin-5-yl)pyridin-2(1H)-one], for which the Ki was 0.006 nM.
